| SMILES | melting point |
| --- | --- |
| CN(C)CCn1c(=O)c2ccc([N+](=O)[O-])cc2c2cnc3cc4c(cc3c21)OCO4 | 111 to 112 °C |
| CC(C)(CNC(=O)Cc1ccccc1)NCC(O)c1cc(Cl)c(NC(=O)C(C)(C)C)c(Cl)c1 (stereo not drawn) | 83 to 85 °C |
| Cc1nc(-n2cc(C(=O)NCc3ccc(F)cc3)nn2)sc1C(=O)NCc1ccccc1 | 198 to 201 °C |
| CCCCCCCCCCCCc1ccccc1C(SCCCC(=O)O)C(=O)O (stereo not drawn) | 58 to 59 °C |
| N#Cc1ccc(N(Cc2ccc(O)c(Br)c2)n2cnnc2)cc1-c1ccccc1 | 218 to 220 °C |
| CNc1cc(Cc2cnc(N)nc2N)cc(N(C)C)c1OC | 183 °C |
| COc1cc(C)c(C)cc1NC(=S)N1CCN(c2cc(Cl)cc(Cl)c2)CC1 | 188 to 189 °C |
| CN(C)C=Nc1ncc(-c2ccc(C(F)(F)F)cc2)cc1C(F)(F)F | 114 °C |
| CCN(CC)C(=O)c1ccc2ccccc2c1-c1cccc(COC(C)(C)C)c1 | 117 to 119 °C |
| COc1cc2ncnc(N3CCN(C(=O)Nc4ccc(CC(C)C)cc4)CC3)c2cc1OC | 215 to 217 °C |
| CCc1nc2ccc(S(C)(=O)=O)nn2c1S(N)(=O)=O | 225 to 226 °C |
| Nc1c(SC(F)(F)F)c(C=O)nn1-c1c(Cl)cc(CC(F)(F)F)cc1Cl | 140 to 143 °C |
| O=C1NC(=O)c2c1c(-c1ccccc1)c(-c1ccccc1)c1[nH]c3ccc(O)cc3c21 | > 300 °C |
| Cc1noc(C)c1-c1ccc(OC2SCC(O)C(O)C2O)cc1 (stereo not drawn) | 175 to 179 °C |
| COc1ccc2c(C(=O)N(C=O)CC(=O)O)cccc2c1C(F)(F)F | 142 to 144 °C |
| COc1ccc(C(=O)Nc2c[nH]nc2C(=O)NCCC#N)cc1 | 199 to 200 °C |
| O=C(NN1CCCCC1)C1=NN(c2ccc(Cl)cc2Cl)C(c2ccc(Cl)cc2)C1 (stereo not drawn) | 75 to 78 °C |
| CC(C)(C)NC(=O)c1nn(-c2ccc(F)cc2F)c2c1C1CC3CC(C1)CC2C3 | 188 to 190 °C |
| O=C1c2ccc(Br)cc2C(=O)N1c1ccc2c(c1)C=C2 | 167 to 168 °C |
| CC1(C)CS(=O)(=O)CC(C)(C)[NH+]1[O-] | 163 °C |
| CCOC(=O)c1ccc(CNC(=O)CI)cc1O | 105 to 108 °C |

| SMILES | melting point |
| --- | --- |
| CC1=CN(C)C2=NC(C)N(c3ccc(C#N)cc3)C2=C1 (stereo not drawn) | 260 to 262 °C |
| CCC(CC)(CC(=O)Nc1ccc2ccc(OCc3ccc4cc(F)ccc4n3)cc2c1)C(=O)O | 191 to 196 °C |
| CCN(CC)CCCOc1ccc(C(=O)c2oc3ccccc3c2-c2ccccc2)cc1 | 122 to 126 °C |
| Cc1onc(-c2ccc(C(F)(F)F)cc2)c1CCC(=O)O | 138 to 139 °C |
| O=C(O)C(CCc1ccccc1)Oc1ccc(-c2ccc(-c3c(Cc4ccccc4)oc4ccccc34)cc2)cc1 (stereo not drawn) | 152 to 154 °C |
| O=C1c2c(O)cccc2C(SCCO)c2cccc(O)c21 | 146 to 147 °C |
| CCOP(=O)(/C=C/c1cn(-c2ccccc2)nc1OCc1ccc(OCc2nc(-c3cccc(C(=O)O)c3)oc2C)cc1)OCC | 153 to 155 °C |
| CCOC(=O)c1cc2c(C)c([N+](=O)[O-])c(C)c(C)c2o1 | 126 to 128 °C |
| CCCC1=Cc2c3c(c(C)c(C)c2C1=O)OC(C(=O)O)C3 (stereo not drawn) | 212 °C |
| O=C1C(C(c2cc(F)ccc2F)S(=O)(=O)c2ccc(Cl)cc2)CCCN1CCCO (stereo not drawn) | 120 to 121 °C |
| COc1cc(C(=O)COC(C)=O)ccc1O | 115 to 117 °C |
| CCCN(CCCN1CCc2cc(OC)c(OC)cc2CC1=O)CCc1ccc(OC)c(OC)c1 | 56 to 70 °C |
| COC(=O)CCc1cc(C(=O)c2cccc(C(=O)OC)n2)ccc1OCCCC/C=C/c1ccc(OC)cc1 | 80 to 82 °C |
| CCCCCCCCCCCCCCCCCCOc1cc(OCCCOc2ccc(S(C)(=O)=O)cc2)cc(N(CC(=O)O)CC(=O)O)c1 | 118 to 120 °C |
| CC(C)(C)OC(=O)CC(NC(=O)C1CCCN2C(=O)CCC(NS(C)(=O)=O)C(=O)N12)C(=O)COC(=O)c1ccccc1Oc1ccccc1 (stereo not drawn) | 85 to 100 °C |
| C=CC(C)n1ncc(-c2ccc(S(C)(=O)=O)cc2)c(-c2ccc(F)cc2)c1=O (stereo not drawn) | 140 to 142 °C |
| C(=C\c1cc(/C=C/c2ccc3[nH]ccc3c2)n[nH]1)/c1cccc(OCc2ccccn2)c1 | 183 to 186 °C |
| O=C(Nc1ccn(C2OC(CO)C(O)C2(F)F)c(=O)n1)OCc1ccc([N+](=O)[O-])s1 (stereo not drawn) | 144 to 148 °C |
| O=C1c2ccccc2C(=O)N1CCCC(c1ccc(F)cc1)c1ccc(F)cc1 | 69 to 70 °C |
| Cc1ccc(-c2ccc(C(=O)Nc3ccc4cc(CN5CCCC5)cnc4c3C)cn2)cc1 | 178 to 180 °C |
| Cc1c(O)cccc1C(=O)N[C@@H](Cc1ccccc1)[C@H](O)C(=O)N1CSC(C)(C)[C@H]1C(=O)NCc1ccc(N)cc1 | 107 to 109 °C |

| SMILES | melting point |
| --- | --- |
| COC(=O)[C@@H]1CCCN1S(=O)(=O)c1ccc(Cl)c(COc2cccc3c(C)cc(C)nc23)c1OC | 66 to 70 °C |
| COc1cc2c(cc1Br)-c1cc3c(n1CC2)C(=O)N(C(C)(C)C)CCC(C)(C)C3 | 175 to 177 °C |
| FC(F)(F)C(Cl)=NC(c1ccccc1)(c1ccccc1)c1ccccc1 | 144 to 145 °C |
| N=C(N)Nc1nc(CO)cs1 | 163 to 165 °C |
| CC(C)(C)OC(=O)N1CCC2(CC1)NC(=O)N(CC(O)CO)C2=O (stereo not drawn) | 167 to 170 °C |
| Oc1ccc(-c2cc3cc(O)ccc3o2)c(Br)c1 | 195 °C |
| O=c1cc(C(F)(F)F)[nH]c(=O)n1-c1ccc(F)c(F)c1F | 137 to 138 °C |
| O=C(Nc1cc(C(F)(F)F)cc(C(F)(F)F)c1)C1C(=O)C2CCC(CC2)C1=O (stereo not drawn) | 286 to 288 °C |
| COc1ccc2c(c1)c(Cc1nc3c(F)c(F)cc(F)c3s1)cn2CC(=O)O | 165 to 167 °C |
| CC(C)(C)OC(=O)N1CCC(=CS(=O)(=O)NC(=O)c2cc(C(F)(F)F)cc(C(F)(F)F)c2)CC1 | 132 to 136 °C |
| N#Cc1ccc(-c2ccc(-c3nc4cc(C#N)ccc4[nH]3)cc2)c(OCc2ccccc2)c1 | 205 to 208 °C |
| CC(C)Cc1cccc(CCCn2c(=O)c3c(N4CCN(C)CC4)cc(Cl)cc3n(Cc3ccccc3)c2=O)c1 | 56 to 62 °C |
| COc1ccc(-n2c(=O)c(C(=O)Cl)nc3c(Cl)cccc32)cc1 | 131 to 134 °C |
| Cc1cccc(C)c1CNc1cc(C(=O)N(C)C)nc2c(C)c(C)[nH]c12 | 315 °C |
| COc1ccc(CCC(C)N(Cc2ccccc2)CC(O)c2ccc(OCc3ccccc3)c(N)c2)cc1OC (stereo not drawn) | 115 °C |
| Cn1cc(-c2cccc(Cl)c2)c(=O)c(-c2ccc(Cl)c(Cl)c2)c1 | 107 to 110 °C |
| COc1cccc(Oc2c(Cl)ncnc2NS(=O)(=O)c2ccc(C(C)(C)C)cc2)c1 | 109 to 110 °C |
| CSC(SC)=C(C(O)C(C)(C)C)n1cncn1 (stereo not drawn) | 108 to 111 °C |
| CCc1cc2c(cc1C#Cc1ccc(C)cc1)C(C)(C)CCC2(C)C | 72 to 73 °C |

Results, then the molecule that gave them:

| melting point | SMILES |
| --- | --- |
| 125 to 127 °C | CCOC(=O)CCCNC1=NS(=O)(=O)c2ccccc21 |
| 122 °C | CCC1N=NC(c2ccccc2)=C(O)N1C (stereo not drawn) |
| 245 to 246 °C | O=CNCc1c[nH]c(=S)n1[C@H]1CCc2c(F)cc(F)cc2C1 |
| 88 to 92 °C | CCCc1c(C#CCCCCOc2ccccc2CCC(=O)O)ccc2c1OCCC2=O |
| 148 to 150 °C | COCCOc1nc2cc(-c3ccc(OC)cc3)nnc2c2ccccc12 |
| 202 to 205 °C | COc1ccc(-c2ccc3c(N4CCOC[C@@H]4C)nc(N4CCOC[C@@H]4C)nc3n2)cc1CO |
| 142 to 144 °C | O=C(O)CCCN1c2ccccc2Sc2ccc(Cl)cc21 |
| 185 to 186 °C | O=C(O)C1c2ccccc2CSc2ccc(Br)cc21 (stereo not drawn) |
| 74 to 75 °C | CC(O)CCc1ccc(-c2ccccc2)cc1 (stereo not drawn) |
| 72 to 73 °C | Oc1ccccc1CNCCCCCCNCc1ccccc1O |
| 225 °C | COc1cc2c3c(c1O)C1(C=CC(=O)C=C1)CC3N(C)CC2 (stereo not drawn) |
| 169 to 172 °C | CC(C)(C)OC(=O)NN=Cc1ccc(-c2ccccn2)cc1 |
| 87 to 89 °C | C=C(Cc1ccccc1)C(O)C(NC=O)C(=O)OCC (stereo not drawn) |
| 64 to 66 °C | COc1ccc(C=CBr)cc1O |
| 269 °C | CC(=O)Nc1cccc2c1C(=O)c1c-2n[nH]c1-c1cccs1 |
| 112 °C | ClCCCn1c(Cc2ccccc2)nc2ccccc21 |
| 89 to 91 °C | COc1ccccc1OCC1SCCN1C(=S)CC(C)=O (stereo not drawn) |
| 58 to 59 °C | Nc1c(C(F)(F)F)cc(OCc2ccccc2)cc1C(F)(F)F |
| 119 to 121 °C | N#CCOC(=O)C=Cc1cc2ccccc2o1 |

| melting point | SMILES |
| --- | --- |
| 92 to 93 °C | N#CC[C@H](O)Cc1cc2ccccc2[nH]1 |
| 113 °C | CCCn1c2cc(OCc3ccccc3)ccc2c2ccnc(C)c21 |
| 217 to 219 °C | Cc1ccc(-c2cccc(NC(=O)Nc3cccc4c3CC(O)CC4)c2)cc1 (stereo not drawn) |
| 229 to 230 °C | CC(=O)Nc1cnn2c1-c1ccccc1N(NC(C)=O)C2(C)C |
| 210 to 212 °C | O=C(CN1C(=O)C2(COc3cc4c(cc32)CCO4)c2ccccc21)Nc1ccccc1F (stereo not drawn) |
| 89 to 90 °C | c1ccc2c(c1)CCOC2 |
| 59 to 60 °C | CCOCc1ccc(C=C(C)c2ccc3c(c2)C(C)(C)CCO3)cc1 |
| 101 °C | CC(=O)CC(=O)Nc1cccc(OC(C)=O)c1 |
| 250 °C | Cc1cc(-c2[nH]nc3c2C(=O)c2c(NC(=O)NN4CCN(C)CC4)cccc2-3)c(C)s1 |
| 145 to 147 °C | CC(C)(C)OC(=O)CN1C(=O)[C@@H](NC(=O)OC(C)(C)C)CCc2ccccc21 |
| 100 to 104 °C | O=c1n(-c2ccc(Cl)cc2Cl)nc2n1CCCC2 |
| 176 to 179 °C | COc1cc(N2CCC(N3CCN(C)CC3)CC2)ccc1Nc1ncc2cc3ccccc3n2n1 |
| 250 to 252 °C | CC(=O)Nc1nc(N)nnc1-c1cccc(Cl)c1Cl |
| 212 to 214 °C | COc1ccc2cc(C(N)=O)ccc2n1 |
| > 400 °C | O=c1[nH]c2ncc(-c3ccc(O)nc3)nc2n1CC1CCCCC1 |
| 41 to 47 °C | CCOC(=O)/C(=C/c1ccccc1)OC(C)=O |
| 32 to 38 °C | O=C(O)Cc1c(Oc2ccccc2)cccc1Oc1ccccc1 |
| 150 to 151 °C | CC(C)c1cccc(COCCCO)c1NC(=O)CC1c2ccccc2Oc2ccccc21 |

Source: a melting point compilation (Tetko et al.; mined from patent text by program, amines drawn as free bases though some values may be those of a salt)
